In publication PMC2832307 (Journal of medicinal chemistry, 2009):
“Also recorded” adds a separate entry of the source. Where two headings read alike, the source gives them in different places.

Assays:
[1] = test system: PCDH15-R3X nonsense mutation; assay: Ex vivo dual luciferase readthrough assay in COS-7 cells; assay type: cell-based, monkey
[2] = test system: nonsense mutation constructs (p2luc, R3381X, R3X, R245X, G542X, W1282X, Q70X, W402X); assay: In vitro dual luciferase readthrough assay; assay type: biochemical; details: for reduction in overall translation: highest concentration, Renilla luciferase activity ratio, all eight constructs
[3] = test system: hair cells of mouse organ of Corti explants; assay: Ototoxicity: hair cell loss in cochlear explants; assay type: cell-based; details: 0.2 mM, basal part
[4] = Acute intravenous toxicity; parameters: species or system mice; details: male, BALB/C, mouse, in vivo
mice = details: cited from earlier work
premature stop codons = details: cited from earlier work
[5] = test system: human CFTR-G542X nonsense mutation; details: clinical doses, transgenic CF mouse; cited from earlier work
[6] = test system: human cytoplasmic A site sequence; details: cited from earlier work

Compound: CNC(C)C1CCC(N)C(OC2C(N)CC(N)C(OC3OCC(C)(O)C(NC)C3O)C2O)O1 (stereo not shown) [Gentamicin, gentamicin]
- maximal suppression level ([1]; COS-7 cells): 1.86%
- reduction in overall translation [2]: approximately 50%
- hair cell loss in cochlear explants [3]: hair cell loss was almost complete; also recorded: cell loss is almost complete
- LD50 at 4 days [4]: 60 mg/kg

Compound: NCCC(O)C(=O)NC1CC(N)C(OC2OC(CN)C(O)C(O)C2N)C(O)C1O (stereo not shown) [N-1-AHB-neamine]
- LD50 (mice; acute lethal toxicity): 260 mg/kg

Compound: NC[C@@H]1O[C@H](O[C@H]2[C@@H](O)[C@H](O[C@@H]3[C@@H](O)[C@H](N)C[C@H](N)[C@H]3O[C@H]3O[C@H](CO)[C@@H](O)[C@H](O)[C@H]3N)O[C@@H]2CO)[C@H](N)[C@@H](O)[C@@H]1O [Paromomycin, paromomycin]
- reduction in overall translation [2]: approximately 40%

Compound: NCC[C@H](O)C(=O)N[C@@H]1C[C@H](N)[C@@H](O[C@H]2O[C@H](CN)[C@@H](O)[C@H](O)[C@H]2O)[C@H](O)[C@H]1O[C@H]1O[C@H](CO)[C@@H](O)[C@H](N)[C@H]1O [amikacin]
- readthrough potency, fold lower than gentamicin (premature stop codons): over 10 fold
- suppression of CFTR-G542X nonsense mutation [5]: highly effective suppression
- LD50 (mice; acute intravenous toxicity in mice): 300 mg/kg

Compound: NCC[C@H](O)C(=O)N[C@@H]1C[C@H](N)[C@@H](O[C@H]2O[C@H](CN)CC[C@H]2N)[C@H](O)[C@H]1O[C@H]1O[C@H](CO)[C@@H](O)[C@H](N)[C@H]1O [arbekacin]
- LD50 (mice; acute lethal toxicity): 118 mg/kg

Compound: NC[C@H]1O[C@@H](O[C@@H]2[C@@H](O)[C@H](N)C[C@H](N)[C@H]2O[C@H]2O[C@H](CO)[C@@H](O)[C@H](O)[C@H]2N)[C@H](O)[C@@H]1O [compound 1]
- fold weaker affinity than paromomycin [6]: about 100 fold

Compound: NCC[C@H](O)C(=O)N[C@@H]1C[C@H](N)[C@@H](O[C@H]2O[C@H](CO)[C@@H](O)[C@H](O)[C@H]2N)[C@H](O[C@@H]2O[C@H](CN)[C@@H](O)[C@H]2O)[C@H]1O [compound 2, 5-O-(5-Amino-5-deoxy-β-D-ribofuranosyl)-1-N-[(S)-4-amino-2-hydroxy-butanoyl]paromamine]
- fold more effective (maximal suppression) than compound 1 ([1]; COS-7, vs compound 1): 1.9 fold
- fold more effective (maximal suppression) than gentamicin ([1]; COS-7, vs gentamicin): 2.8 fold
- fold more effective (maximal suppression) than paromomycin ([1]; COS-7, vs paromomycin): 3.2 fold
- reduction in overall translation [2]: approximately 50%
- level of readthrough (rank among four aminoglycosides) ([2]; in vitro, eight constructs): induced the highest level of readthrough

Compound: NC[C@@H]1CC[C@@H](N)[C@@H](O[C@H]2[C@H](O)[C@@H](O[C@H]3O[C@H](CO)[C@@H](O)[C@H](N)[C@H]3O)[C@H](N)C[C@@H]2N)O1 [dibekacin]
- LD50 (mice; acute lethal toxicity): 71 mg/kg

Compound: NC[C@H]1O[C@H](O[C@H]2[C@H](O)[C@@H](O)[C@H](N)C[C@@H]2N)[C@H](N)[C@@H](O)[C@@H]1O [neamine]
- LD50 (mice; acute lethal toxicity): 125 mg/kg

Compound: NC[C@H]1O[C@H](O[C@H]2[C@H](O[C@@H]3O[C@H](CO)[C@@H](O)[C@H]3O)[C@@H](O)[C@H](N)C[C@@H]2N)[C@H](N)[C@@H](O)[C@@H]1O [ribostamycin]
- LD50 (mice; acute lethal toxicity): 260 mg/kg

Compound: NC[C@H]1O[C@H](O[C@H]2[C@H](O)[C@@H](O[C@H]3O[C@H](CO)[C@@H](O)[C@H](N)[C@H]3O)[C@H](N)C[C@@H]2N)[C@H](N)C[C@@H]1O [tobramycin]
- suppression activity (premature stop codons): does not have suppression activity

Compound: butirosin
- LD50 (mice; acute lethal toxicity): 520 mg/kg

Compound: kanamycin A
- readthrough activity (premature stop codons): does not show measurable readthrough activity
